For one experiment, the system named is lipase. Particulars: human, three capsules of 120 mg daily; cited from earlier work.
The target of another experiment is T1, pancreatic lipase (Homo sapiens, UniProt P16233).
T1 sequence (P16233 17-465): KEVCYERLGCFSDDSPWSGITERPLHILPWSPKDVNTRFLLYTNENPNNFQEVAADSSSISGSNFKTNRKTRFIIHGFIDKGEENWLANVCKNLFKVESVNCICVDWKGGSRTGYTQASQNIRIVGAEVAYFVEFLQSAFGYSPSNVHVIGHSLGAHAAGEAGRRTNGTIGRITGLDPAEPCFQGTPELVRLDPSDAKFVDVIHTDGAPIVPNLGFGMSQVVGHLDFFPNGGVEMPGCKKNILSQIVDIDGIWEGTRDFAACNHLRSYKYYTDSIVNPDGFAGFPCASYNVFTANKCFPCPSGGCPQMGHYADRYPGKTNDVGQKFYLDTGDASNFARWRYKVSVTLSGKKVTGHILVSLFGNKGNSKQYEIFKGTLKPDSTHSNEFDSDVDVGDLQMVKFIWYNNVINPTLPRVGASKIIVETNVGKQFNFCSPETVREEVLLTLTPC
Put plainly: in vitro effect on the activity of pancreatic lipase. It counts as biochemical. Particulars: concentration of 10 mg, after 45 and 60 minutes, 37° C. From the text: The composition of the formulation of the invention is presented below in the Table 1: […]

Regarding `CCCCCCCCCCC[C@@H](C[C@@H]1OC(=O)[C@H]1CCCCCC)OC(=O)[C@H](CC(C)C)NC=O` (relative stereo) [Xenical®, ([2S-[2a(R*),3b]]N-formyl-L-leucine 1-[(3-hexyl-4-oxo-2-oxetanyl)methyl]dodecyl ester)], the “consumed fat that goes through the digestive tract without decomposition and is not absorbed” value in the experiment on lipase is 30%. For the same compound, the “inhibition of lipase activity” value at pancreatic lipase is “complete inhibition”.

(Values after patent US20090175969A1, “Formulation for treating obesity and associated metabolic syndrome” (priority 2004, published 2009).)
